The subject of experiment [1] is β4 integrin/FAK complex. The experiment is described as follows: immunoprecipitation of β4 integrin and FAK in HCT-116 cells. Format: cell-based, human. The method, then: (§1) Cells or tissue samples were homogenized and extracted for Western blotting. For immunoprecipitation, proteins were incubated with antibodies as indicated at 4° C. overnight, followed by incubation for 4 hrs with protein A-Sepharose 4B beads (Sigma-Aldrich). All experiments were conducted at least three independent times.

Experiment [2] has as its system HCT-116 cells. The experiment is described as follows: anchorage-independent growth assay, HCT-116. Format: cell-based, human. The method, then: An anchorage-independent growth assay was conducted with several modifications. Briefly, 5×10^4 cells were seeded in a 0.3% agar in DMEM containing 10% FBS over the bottom 0.6% agar layer in DIVIEM. After incubation for 14 days, the number and size of colonies were scored.

The next experiment relates to FAK phospho-Tyr397. The experiment is described as follows: Western blot of FAK phospho-Tyr397 in MDA-MB-231 cells. Type of experiment: cell-based, human. The method, then: (§2) Various plasmid-transfected or pharmacologically treated cells or tissue samples were homogenized and extracted for Western blot analyses. About 10-20 μg whole cell lysate were used for Western blotting. A 1 mg/ml concentration of total protein from cell lysates was employed for immunoprecipitation. Some extracts subjected to immunoprecipitation were incubated with antibodies, as indicated, for 4 h at 4° C., followed by incubation for 4 h or overnight with protein A-Sepharose 4B or protein G-Sepharose beads (Sigma-Aldrich) before proceeding to Western blot analysis. Each experiment was repeated at least three independent times.
A general note: Immunoblotting shows a protein as a band on a membrane.

Experiment [3] has as its system β4 integrin/FAK complex. The experiment can be described thus: co-immunoprecipitation of β4 integrin and FAK in MDA-MB-231 cells. Type of experiment: cell-based, human. Here is the method: as §2
The subject of experiment [4] is FAK autophosphorylation at Tyr397. The experiment is described as follows: Western blot of FAK autophosphorylation at Tyr397 in HCT-116 cells. Format: cell-based, human. The method, then:
as §1

The test system of a further experiment is β4 integrin at Tyr1526. The experiment can be described thus: Western blot of β4 integrin tyrosine phosphorylation in MDA-MB-231 cells. Type of experiment: cell-based, human. The settings on record: 10 μM. Here is the method:
as §2

For experiment [5], the system named is HCT-116 cells. The experiment is described as follows: in vivo tumorigenicity, subcutaneous xenograft mouse model. The settings on record: ectopic expression in HCT-116 cells, subcutaneous in SCID mice; 21 days. Here is the method:
Here. FAK and FRNK transfectants were used as controls. […] All results are presented as the means ±s.d. from at least three independent experiments (*. p<0.05, compared with the corresponding mock control). […] An in vivo tumorigenicity assay was conducted using a xenograft mouse model by subcutaneously injecting cells described above into SCID mice. Mice were sacrificed 21 days after tumor injection. Tumor mass (left, top), protein expression (left, bottom), and tumor weight (right) of the xenografts were measured. Five mice were assessed for each group (Scale bar, 1 cm. *, p<0.05, compared with the corresponding mock control).

The subject of a further experiment is NIH3T3. The experiment is described as follows: specificity: β1 integrin-mediated cell migration in NIH3T3. Format: cell-based, mouse. The settings on record: overexpressed in NIH3T3.
For another experiment, the system named is paxillin/FAK complex. The experiment can be described thus: specificity: paxillin/FAK complex in NIH3T3. Format: cell-based, mouse. The settings on record: overexpressed in NIH3T3.
Experiment [6] concerns HCT-116 cells. The experiment can be described thus: BrdU incorporation assay, HCT-116. The settings on record: HCT-116 cells overexpressing the peptide. Format: cell-based, human. Here is the method:
A BrdU incorporation assay was performed. Briefly, serum-starved cells were incubated in DMEM with 10% FBS and 100 μM BrdU (Sigma-Aldrich) for 16 hrs. Cells were fixed, permeabilized, treated with DNase I, and processed for immunofluorescence staining with anti-BrdU (Sigma-Aldrich) antibody. The BrdU-positive staining cells were scored.
(Incorporation of labelled thymidine or its analogues reports DNA synthesis.)

The subject of experiment [7] is MDA-MB-231 cells. The experiment can be described thus: in vivo lung metastasis after tail vein injection, bioluminescence. Details: species or system nude mice. The settings on record: MDA-MB-231 transfectants, 84 days after injection, vs mock and triple mutant. Here is the method: (§3) All mouse experiments were approved by the Institutional Animal Care and Use Committee, National Taiwan University (Taipei, Taiwan). All experimental procedures were performed in accordance with the protocols and the ethical regulations approved by the Institutional Animal Care and Use Committees of National Taiwan University (Taipei, Taiwan). Female nu/nu mice were purchased from the National Laboratory Animal Center (Taipei, Taiwan). For tumorigenesis, 1×10^6 MDA-MB-231 stably transfected pools expressing GFP-tagged FAK/25aa, its triple (FAK/25aa^E380A/K381A/Q382A)or double (FAK/25aa^R385A/S386A) mutant, or a mock transfected control that had been selected by 500 μg/ml G418 for 2 weeks were injected into the 3rd mammary fat pad of eight-week-old female nu/nu mice. Stably transfected pools of each construct were injected in 100 μl PBS. Tumor volumes and numbers were measured at 12 weeks after injection and then excised, photographed, and weighted. For tumor metastasis, 1×10^6 MDA-MB-231 cells, described above, that were labeled with luciferase by lentiviral infection were resuspended in 100 μl PBS and injected into the tail vein of six-week-old female nu/nu mice. Lung metastasis was monitored by bioluminescent imaging using an IVIS spectrum imaging system. Lung metastasis was measured on the respective day after injection.

Experiment [8] concerns MDA-MB-231 cells. The experiment is described as follows: in vivo tumorigenesis, orthotopic injection into mammary fat pad. The settings on record: stably expressing MDA-MB-231 cells in mammary fat pad of nude mice; 12 weeks. The method, then: as §3
Experiment [9] has as its system MDA-MB-231 cells. The experiment is described as follows: BrdU incorporation cell proliferation assay, MDA-MB-231. Format: cell-based, human. The settings on record: MDA-MB-231 transfectants; compared to mock and triple-mutant cells. The method, then: At 24 h after transfection, 2×10^4 cells were serum starved for 24 h. Cells were then washed twice with DMEM and incubated for 16 h in DMEM plus 10% FBS and 100 μM BrdU (Sigma-Aldrich). After that, cells were fixed, permeabilized, heated with DNase I, and processed for immunofluorescence staining, with anti-BrdU (1:200, Sigma-Aldrich) antibody, as described previously^39, with a few modifications. Cells were then counted in multiple fields and scored for BrdU-positive staining in each independent experiment.

Experiment [10] concerns MDA-MB-231 cells. The experiment is described as follows: anchorage-independent growth in soft agar assay, MDA-MB-231. Type of experiment: cell-based, human. The settings on record: in comparison with the TAT alone, peptide 10 μM or 50 μM. The method, then: Experiments were performed as previously described'^9, with the following modifications. A total of 5×10^4 cells were seeded in 0.3% agar in DMEM plus 10% […] and EGF (10 ng/ml) over the bottom 0.6% agar layer in DMEM. After incubation for 14 days, the number of colonies was scored.

Experiment [11] has as its target T1, β4 integrin (human, UniProt P16144 28-1822, limits assumed).
T1 construct: Endogenous full-length β4 integrin in lysates or immunoprecipitates; In cells it is paired with α6 integrin; also called integrin β4; ITGB4
The experiment can be described thus: overexpression in HCT-116 cells.

The target of experiment [12] is T2, focal adhesion kinase (FAK) (human, UniProt Q05397 2-1052).
T2 construct: Endogenous FAK in lysates of human cells and tissues; also called full-length FAK; FAX [sic]
The experiment can be described thus: HA-tagged β4 fragments in HEK-293 cells (FIG. 9F).

The target in experiment [13] is T1, β4 integrin. The experiment can be described thus: Ni-bead pull-down from MDA-MB-231 lysate, anti-β4 integrin Western blot (FIG. 1(g)).
Experiment [14] concerns the target T1, β4 integrin. The experiment is described as follows: GST pull-down from HCT-116 lysate, anti-β4 integrin Western blot (FIG. 9(C)).

Where no end group is shown, it is not given here.

T1 sequence (P16144 28-1822 limits assumed): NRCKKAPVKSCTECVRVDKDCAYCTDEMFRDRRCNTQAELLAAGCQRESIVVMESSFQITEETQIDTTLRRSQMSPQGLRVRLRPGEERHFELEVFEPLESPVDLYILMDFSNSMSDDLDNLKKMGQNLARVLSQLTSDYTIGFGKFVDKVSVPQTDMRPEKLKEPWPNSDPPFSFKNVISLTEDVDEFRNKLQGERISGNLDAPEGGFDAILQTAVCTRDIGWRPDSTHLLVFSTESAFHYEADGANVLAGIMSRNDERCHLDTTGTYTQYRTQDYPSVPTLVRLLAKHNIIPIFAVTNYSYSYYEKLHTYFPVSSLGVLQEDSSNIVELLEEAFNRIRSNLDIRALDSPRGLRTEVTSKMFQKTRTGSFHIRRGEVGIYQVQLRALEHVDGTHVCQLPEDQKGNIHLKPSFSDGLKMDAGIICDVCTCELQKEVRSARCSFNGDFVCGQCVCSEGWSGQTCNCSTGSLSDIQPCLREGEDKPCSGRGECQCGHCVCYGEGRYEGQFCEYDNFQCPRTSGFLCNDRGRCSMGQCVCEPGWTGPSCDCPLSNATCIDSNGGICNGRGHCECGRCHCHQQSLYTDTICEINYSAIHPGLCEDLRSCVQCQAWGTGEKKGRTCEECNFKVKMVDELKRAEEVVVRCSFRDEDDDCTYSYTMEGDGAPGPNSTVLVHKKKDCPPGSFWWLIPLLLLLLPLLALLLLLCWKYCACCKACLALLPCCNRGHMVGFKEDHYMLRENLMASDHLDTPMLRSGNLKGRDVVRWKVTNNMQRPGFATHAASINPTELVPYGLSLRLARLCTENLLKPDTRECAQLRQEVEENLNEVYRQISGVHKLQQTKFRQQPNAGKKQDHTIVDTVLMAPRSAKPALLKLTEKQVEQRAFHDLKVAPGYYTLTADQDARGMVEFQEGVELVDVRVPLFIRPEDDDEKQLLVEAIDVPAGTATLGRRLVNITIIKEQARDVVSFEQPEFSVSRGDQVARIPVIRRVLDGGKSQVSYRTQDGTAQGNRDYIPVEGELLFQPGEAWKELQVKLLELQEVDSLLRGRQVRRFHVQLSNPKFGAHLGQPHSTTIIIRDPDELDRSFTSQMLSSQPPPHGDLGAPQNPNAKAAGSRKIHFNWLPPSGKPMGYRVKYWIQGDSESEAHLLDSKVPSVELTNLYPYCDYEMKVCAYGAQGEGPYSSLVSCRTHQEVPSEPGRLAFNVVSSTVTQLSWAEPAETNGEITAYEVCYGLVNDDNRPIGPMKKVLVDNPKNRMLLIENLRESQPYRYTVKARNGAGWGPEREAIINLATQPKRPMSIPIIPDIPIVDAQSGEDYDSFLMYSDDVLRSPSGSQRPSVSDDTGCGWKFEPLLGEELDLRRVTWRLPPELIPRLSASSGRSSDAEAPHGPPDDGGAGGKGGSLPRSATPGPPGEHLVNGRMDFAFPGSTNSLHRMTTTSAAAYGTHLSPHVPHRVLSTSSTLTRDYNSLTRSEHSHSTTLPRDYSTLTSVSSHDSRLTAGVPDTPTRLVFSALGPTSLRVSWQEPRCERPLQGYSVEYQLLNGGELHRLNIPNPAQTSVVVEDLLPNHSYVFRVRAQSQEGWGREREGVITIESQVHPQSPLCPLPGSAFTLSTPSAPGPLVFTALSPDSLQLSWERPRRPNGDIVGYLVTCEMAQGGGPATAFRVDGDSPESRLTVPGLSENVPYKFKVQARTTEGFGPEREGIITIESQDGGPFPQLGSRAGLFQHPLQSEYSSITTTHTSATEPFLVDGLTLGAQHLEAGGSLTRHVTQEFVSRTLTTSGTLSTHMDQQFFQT
Sequence of paxillin/FAK complex (Q8VI36 whole entry): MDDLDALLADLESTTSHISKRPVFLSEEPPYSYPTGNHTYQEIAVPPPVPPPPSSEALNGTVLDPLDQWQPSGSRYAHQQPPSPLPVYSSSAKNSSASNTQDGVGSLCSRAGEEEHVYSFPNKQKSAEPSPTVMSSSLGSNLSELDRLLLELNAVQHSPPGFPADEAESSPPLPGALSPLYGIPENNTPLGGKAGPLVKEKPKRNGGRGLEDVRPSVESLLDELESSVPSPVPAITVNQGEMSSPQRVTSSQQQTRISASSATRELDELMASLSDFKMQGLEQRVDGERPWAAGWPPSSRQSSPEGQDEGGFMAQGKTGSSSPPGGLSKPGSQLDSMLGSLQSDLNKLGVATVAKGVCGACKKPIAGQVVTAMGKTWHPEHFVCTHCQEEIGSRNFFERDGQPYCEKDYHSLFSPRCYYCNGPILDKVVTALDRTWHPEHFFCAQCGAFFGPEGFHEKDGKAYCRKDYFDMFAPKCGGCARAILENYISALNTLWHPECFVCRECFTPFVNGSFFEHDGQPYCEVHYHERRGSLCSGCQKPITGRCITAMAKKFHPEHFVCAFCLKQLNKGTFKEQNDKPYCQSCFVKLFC
Sequence of paxillin/FAK complex (P34152 whole entry, further chain): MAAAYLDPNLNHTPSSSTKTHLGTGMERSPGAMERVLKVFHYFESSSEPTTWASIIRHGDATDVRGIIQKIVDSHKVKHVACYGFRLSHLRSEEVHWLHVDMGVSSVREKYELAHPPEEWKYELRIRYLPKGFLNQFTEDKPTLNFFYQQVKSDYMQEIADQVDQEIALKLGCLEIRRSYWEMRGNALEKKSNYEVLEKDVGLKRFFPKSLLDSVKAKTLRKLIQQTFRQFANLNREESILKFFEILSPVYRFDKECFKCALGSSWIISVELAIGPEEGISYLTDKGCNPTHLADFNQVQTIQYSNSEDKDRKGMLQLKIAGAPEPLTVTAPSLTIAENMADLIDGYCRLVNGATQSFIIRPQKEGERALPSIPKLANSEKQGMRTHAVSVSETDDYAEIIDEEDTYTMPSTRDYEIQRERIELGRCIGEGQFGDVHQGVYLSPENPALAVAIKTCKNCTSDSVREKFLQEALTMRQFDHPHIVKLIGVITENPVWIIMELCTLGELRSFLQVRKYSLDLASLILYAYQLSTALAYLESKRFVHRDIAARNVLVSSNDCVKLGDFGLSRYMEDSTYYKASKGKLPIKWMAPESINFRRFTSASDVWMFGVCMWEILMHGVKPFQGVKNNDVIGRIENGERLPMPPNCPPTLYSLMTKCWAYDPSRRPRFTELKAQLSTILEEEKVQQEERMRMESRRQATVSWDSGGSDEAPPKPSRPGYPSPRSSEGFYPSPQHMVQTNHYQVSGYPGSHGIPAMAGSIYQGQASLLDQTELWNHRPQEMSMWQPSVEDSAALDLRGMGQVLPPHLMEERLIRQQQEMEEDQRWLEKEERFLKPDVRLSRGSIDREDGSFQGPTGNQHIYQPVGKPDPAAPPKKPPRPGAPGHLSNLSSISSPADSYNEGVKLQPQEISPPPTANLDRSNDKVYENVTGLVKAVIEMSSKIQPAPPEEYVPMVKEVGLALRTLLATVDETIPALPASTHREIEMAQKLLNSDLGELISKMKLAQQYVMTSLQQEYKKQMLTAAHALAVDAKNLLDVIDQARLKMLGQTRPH
T2 sequence (Q05397 2-1052 limits assumed): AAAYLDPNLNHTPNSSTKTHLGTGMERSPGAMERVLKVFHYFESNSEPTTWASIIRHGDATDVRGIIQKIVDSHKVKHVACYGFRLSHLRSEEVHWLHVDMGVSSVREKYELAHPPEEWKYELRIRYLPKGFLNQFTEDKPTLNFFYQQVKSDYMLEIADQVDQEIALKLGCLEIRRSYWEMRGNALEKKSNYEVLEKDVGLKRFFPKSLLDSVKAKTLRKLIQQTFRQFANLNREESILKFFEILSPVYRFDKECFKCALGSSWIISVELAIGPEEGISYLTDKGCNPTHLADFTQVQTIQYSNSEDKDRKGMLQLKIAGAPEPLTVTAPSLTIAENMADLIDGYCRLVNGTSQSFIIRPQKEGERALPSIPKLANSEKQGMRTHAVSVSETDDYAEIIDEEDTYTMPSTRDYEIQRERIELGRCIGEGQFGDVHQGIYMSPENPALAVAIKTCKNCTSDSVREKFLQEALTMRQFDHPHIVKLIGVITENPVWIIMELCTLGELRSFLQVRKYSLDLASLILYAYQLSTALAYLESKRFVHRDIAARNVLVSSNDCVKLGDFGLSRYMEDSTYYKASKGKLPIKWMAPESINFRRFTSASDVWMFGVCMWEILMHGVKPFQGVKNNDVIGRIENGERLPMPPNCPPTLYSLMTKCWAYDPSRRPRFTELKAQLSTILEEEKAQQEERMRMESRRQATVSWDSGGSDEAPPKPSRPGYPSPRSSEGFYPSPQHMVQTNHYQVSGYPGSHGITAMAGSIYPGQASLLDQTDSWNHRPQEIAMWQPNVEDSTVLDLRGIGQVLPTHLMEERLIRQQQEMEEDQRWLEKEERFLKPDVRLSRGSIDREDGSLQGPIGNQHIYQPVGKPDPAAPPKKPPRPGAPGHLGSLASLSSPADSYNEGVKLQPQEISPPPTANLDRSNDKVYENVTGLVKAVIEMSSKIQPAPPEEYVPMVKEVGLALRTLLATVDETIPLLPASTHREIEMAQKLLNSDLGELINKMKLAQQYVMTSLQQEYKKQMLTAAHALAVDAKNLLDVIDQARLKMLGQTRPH

`CS(=O)(=O)c1cccc(CNc2nc(Nc3ccc4c(c3)CCC(=O)N4)ncc2C(F)(F)F)c1` [PF-573,228, reference compound]: the “β4 integrin/FAK complex formation” value in the experiment on β4 integrin/FAK complex [1] (FAK activity inhibited, 10 μM) is given as “still formed”. The “anchorage-independent growth (soft agar)” value with HCT-116 cells [2] (HCT-116 cells treated with FAK inhibitor, DMSO control) is “impairs”.

Turning to `CC(C)(C)n1nc(-c2ccc(Cl)cc2)c2c(N)ncnc21` [PP2], the “β4 integrin and FAK association in response to EGF stimulation” value in the experiment with β4 integrin/FAK complex [1] (EGF stimulation) is listed as “ablated”. Besides, in the experiment on β4 integrin/FAK complex [1] (blockade of Src activity), the “β4 integrin/FAK complex formation” value was “decrease”. The “phosphorylation level of FAK at Tyr397” value in the experiment with FAK phospho-Tyr397 (MDA-MB-231 cells, 10 μM) is “reduced”. In addition, the “formation of the β4 integrin/FAK complex” value in the experiment with β4 integrin/FAK complex [3] (MDA-MB-231 cells, 10 μM, compared to PP3- or DMSO-treated cells) was “markedly reduced”. In addition, the “interaction between β4 integrin and FAK under EGF stimulation” value in the experiment on β4 integrin/FAK complex [3] (serum-starved MDA-MB-231 cells, EGF 10 ng/ml, inhibitor 10 μM) is listed as “remained absent”. Further, the “FAK activation in response to EGF stimulation” value in experiment [4] (HCT-116 cells, EGF stimulation) is given as “ablated”. For the same molecule, in experiment [4] (HCT-116 cells, blockade of Src activity), the FAK activation entry is “alleviate”. Besides, the “phosphorylation level of β4 integrin at Tyr1526” value in the experiment with β4 integrin at Tyr1526 is given as “reduced”.

For the molecule “FAK/25aa: the 376th to 400th amino acids of FAK, SEQ ID NO: 3; overexpressed GFP-tagged in cells (LANNEKQGVRSHTVSVSETDDYAEI; also: GFP tag)”, in the experiment with HCT-116 cells [5], the “volume and weight of implanted colon cancer tumors” value is “significantly reduced”. Further, the “β1 integrin-mediated cell migration” value in the experiment with NIH3T3 is reported as “not affected”. Further, in the experiment with β4 integrin/FAK complex [1] (overexpressed motif), the “interaction between β4 integrin and FAK” value is listed as “ablated”. Further, the anchorage-independent growth entry in the experiment with HCT-116 cells [2] (HCT-116 transfectants, compared with mock and triple-mutant cells) is on record as “considerably decreased”. The “FAK phospho-Tyr397” value with FAK phospho-Tyr397 (transfected MDA-MB-231 cells, in comparison to mock or triple-mutant transfectants) is given as “decreased”. Further, the “level of FAK co-immunoprecipitated by β4 integrin” value with β4 integrin/FAK complex [3] (MDA-MB-231 cells, increased expression of the peptide) is “attenuated in a dose-dependent manner”. In the experiment with paxillin/FAK complex, the paxillin/FAK complex entry was “not affected”. The figures for the cell proliferation entry in the experiment with HCT-116 cells [6] and with MDA-MB-231 cells [9] were “impaired” and “decreased”, respectively. In addition, the lung metastatic nodules result in the experiment with MDA-MB-231 cells [7] is on record as “less-developed”. The “Tyr397-autophosphorylation of FAK” value in [4] (transfected HCT-116 cells) was “diminished”. Also, the “size and weight of tumors” value in the experiment on MDA-MB-231 cells [8] is “significant reductions”.

As to “TAT-FAK/25aa: synthesized peptide, FAK/25aa fused with the TAT peptide; sequence GRKKRRQRRRPQLANNEKQGVRSHTVSVSETDDYAE1 (GRKKRRQRRRPQLANNEKQGVRSHTVSVSETDDYAEI)”, the “formation of the β4 integrin/FAK complex” value in the experiment with β4 integrin/FAK complex [3] (MDA-MB-231 cells, extracellular administration of peptide (10 μM)) was “capable of alleviating”. Besides, in the experiment on MDA-MB-231 cells [10], the “foci less formed in soft agar” value is on record as “approximately 30%”.

B1: GFP-tagged FAK/25aa^R385A/S386A (peptide)
chain: LANNEKQGVAAHTVSVSETDDYAEI
modifications: also: GFP tag
notes: Positions are printed in full-length FAK numbering; also called double mutant of FAK/25aa; not shown: GFP of the pEGFP vector
In the case of B1, the binding result with β4 integrin [11] was “binds”.

B2: β4-CalX (other, UniProt P16144 979-1084, looked up)
chain: VNITIIKEQARDVVSFEQPEFSVSRGDQVARIPVIRRVLDGGKSQVSYRTQDGTAQGNRDYIPVEGELLFQPGEAWKELQVKLLELQEVDSLLRGRQVRRFHVQLS
notes: domain: Na+/Ca2+ exchanger homologous motif (CalX); also called β4 Na+/Ca2+ exchanger homologous motif; HA-tagged β4-CalX; not shown: HA tag of the pKH3 vector
With B2, the binding result in experiment [12] is “no binding”.

B3: His-tagged FAK/N375 (other)
chain: MAAAYLDPNLNHTPSSSAKTHLGTGMERSPGAMERVLKVFHYFENSSEPTTWASIIRHGDATDVRGIIQKIVDCHKVKNVACYGLRLSHLQSEEVHWLHLDMGVSNVREKFELAHPPEEWKYELRIRYLPKGFLNQFTEDKPTLNFFYQQVKNDYMLEIADQVDQEIALKLGCLEIRRSYGEMRGNALEKKSNYEVLEKDVGLRRFFPKSLLDSVKAKTLRKLIQQTFRQFANLNREESILKFFEILSPVYRFDKECFKCALGSSWIISVELAIGPEEGISYLTDKGANPTHLADFNQVQTIQYSNSEDKDRKGMLQLKIAGAPEPLTVTAPSLTIAENMADLIDGYCRLVNGATQSFIIRPQKEGERALPSIPK
notes: Recombinant protein from E. coli; not shown: His tag
For the molecule B3, the binding result with β4 integrin [13] is listed as “no binding”.

B4: GST-FAK/N375 (other)
chain: B3 chain
notes: Recombinant protein from E. coli; not shown: GST of the pGEX-2T vector
Turning to B4, in the experiment with β4 integrin [14], the binding result is “no binding”.

The values above are taken from US20180177845A1, “METHOD FOR TREATMENT OR PREVENTION OF A CANCER” (priority 2016, published 2018).
